Patent publication US5453417A, “Process for the phosphorylation of insulin and product produced thereby” (The Hospital for Sick Children, priority 1991, dated 1995)

Columns and labels:
Type in all cases: in vivo, dog
[1] = test system: diabetic (pancreatectomized) dogs; assay: continuous insulin infusion at Max Rate and reduced rates, plasma glucose plateau under fasting conditions
Protocol: The initial step in the protocol involved determining the required insulin infusion rate of either regular or phosphorylated insulin that would, under fasting conditions, reduce plasma glucose from normal at 7:30 a.m. to a plateau of 60 mg %, 2-4 hours later. […] The rate that produced this reduction of blood glucose to 60 mg % was termed "Max Rate".
On subsequent days, identical experiments were conducted on all 4 diabetic dogs with the exception that the animals received a reduced rate of insulin infusion equal to either 1) 62% of the "Max Rate" as shown in FIG. 6 or 2) 36% of the "Max Rate" as shown in FIG. 7.
In this test, the dogs infused with regular insulin reached a glucose threshold of 180 mg % (renal threshold at which the kidneys begin to spill glucose into the urine). The phosphorlated infused dogs reached a lower average glucose level of 120-130 mg %.
All protocols described were conducted in triplicate on all dogs.

[2] = test system: normal, fasted, beagle dogs; assay: intravenous bolus, rate of decline of plasma glucose in 15 minutes following the injection; settings: i.v. bolus, phosphorylated insulin = product of Example 2
Protocol: Phosphorylated insulin produced by the process described in Example 2 and regular insulin (Iletin II pure Pork) were injected as an intravenous bolus into 4 normal, fasted, beagle dogs. Each insulin was injected at a wide range of dosage with not more than one experiment on each dog on any given day. The plasma glucose of each dog was measured (YSI) at 2 minute intervals for 15 minutes following the injection and the rate of decline of glucose from normal was determined in this period for each individual insulin dose. When the data from FIG. 8 are analysed, it can be shown that the % change in insulin dose required to produce a given increase in glucose drop (glucose disposal) is greater for phosphorylated than for regular (unmodified) insulin. Thus, for example, in Table 4, a 28% increase in dose of regular insulin from that which produced a glucose drop of 3.5 mg %/min., caused the "rate of drop of glucose" to increase from 3.5 to 4.0 mg %/min. A 66 % increase in dose of phosphorylated insulin was required to produce the same effect.

diabetic dogs = assay: continuous 24 hour infusion, increase of infusion rate needed to lower 8 a.m. fasting plasma glucose; settings: two diabetic dogs, phosphorylated insulin = product prepared as Example 6 (FIG. 12)
Protocol: Two diabetic dogs were fed a single daily meal of 1100 kcal at 2:00 p.m. daily and given regular (i.e. fast acting) insulin at meal time.
In addition, dogs were infused continuously, 24 hours per day with either regular or phosphorylated insulin (product prepared as example 6).
During repeated experiments the minimum insulin infusion rate required to produce a mean 8 a.m. fasting plasma glucose of 95 mg % was determined for each insulin.

With “regular insulin: regular (unmodified) insulin, fast acting; Iletin II pure Pork in Example 32 [reference compound]” the plasma glucose plateau ([1]; infusion at Max Rate, fasting, last 2 hours, phosphorylated insulin = product of Example 3, 4 diabetic dogs (FIG. 5)) was 60 mg %, the “average glucose level reached” value ([1]; infusion rate reduced to 36% of Max Rate, phosphorylated insulin = product of Example 3 (FIG. 7)) was 180 mg % and the “average plasma glucose plateau” value ([1]; infusion rate reduced to 62% of Max Rate, phosphorylated insulin = product of Example 3 (FIG. 6)) was 150 mg %. For the same substance, the “Required % Increase In Insulin Dose” value ([2]; change in rate of drop of glucose from 1.0 to 1.5 mg %/min) was 49%, the “Required % Increase In Insulin Dose” value ([2]; change in rate of drop of glucose from 1.5 to 2.0 mg %/min) was 33% and the “Required % Increase In Insulin Dose” value ([2]; change in rate of drop of glucose from 2.0 to 2.5 mg %/min) was 25%. For the same substance, the “Required % Increase In Insulin Dose” value ([2]; change in rate of drop of glucose from 2.5 to 3.0 mg %/min) was 20%, the “Required % Increase In Insulin Dose” value ([2]; change in rate of drop of glucose from 3.0 to 3.5 mg %/min) was 39% and the “Required % Increase In Insulin Dose” value ([2]; change in rate of drop of glucose from 3.5 to 4.0 mg %/min) was 28%. The “Required % Increase In Insulin Dose” value ([2]; change in rate of drop of glucose from 4.0 to 4.5 mg %/min) was 34% and the “increase of insulin infusion rate required to drop the fasting glucose from 95 to 70 mg %” value (diabetic dogs) was 20%.
